Results published in patent publication US10206398B2, “Five-membered C-N-attached aryl sulphide and aryl sulphoxide derivatives as pesticides” (BAYER CROPSCIENCE AKTIENGESELLSCHAFT, priority 2014, dated 2019).
Like-named read-outs stand apart in the source and are kept apart here.

Assays:
[1] = log P determination by HPLC on reversed-phase columns (C 18), analogous to OECD Guideline 117; assay type: physicochemical; conditions: for logP[a]: method [a]; for logP[b]: method [b]; for chromatographic logP: reversed-phase HPLC column (C 18)
Method in brief: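 Reversed-phase C18 HPLC per OECD 117, two conditions: [a] pH 2.7, 0.1% formic acid water/acetonitrile, log P(HCOOH); [b] pH 7.8, 0.001 M ammonium hydrogencarbonate/acetonitrile, log P(neutral). Both use a 10–95% acetonitrile gradient; values are interpolated from retention times against C3–C16 unbranched alkan-2-ones.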

Phaedon cochleariae = Phaedon cochleariae - spray test; assay type: in vivo; conditions: 500 g/ha, Chinese cabbage leaf discs, after 7 days
Protocol: 4. Phaedon cochleariae—Spray Test
Solvent: 78.0 parts by weight of acetone
• 1.5 parts by weight of dimethylformamide Emulsifier: alkylaryl polyglycol ether
To produce a suitable preparation of active compound, 1 part by weight of active compound is dissolved using the stated parts by weight of solvent and made up with water containing an emulsifier concentration of 1000 ppm until the desired concentration is attained. To produce further test concentrations, the preparation is diluted with emulsifier-containing water.
After 7 days, the efficacy in % is determined. 100% means that all the beetle larvae have been killed; 0% means that no beetle larvae have been killed.

Meloidogyne incognita = Meloidogyne incognita - test; assay type: in vivo; conditions: 20 ppm, lettuce, after 14 days
Protocol: 2. Meloidogyne incognita—Test Solvent: 125.0 parts by weight of acetone To produce a suitable preparation of active compound, 1 part by weight of active compound is mixed with the stated amount of solvent and the concentrate is diluted with water to the desired concentration. Vessels are filled with sand, active compound solution, an egg/larvae suspension of the southern root-knot nematode (Meloidogyne incognita) and lettuce seeds. The lettuce seeds germinate and the plants develop. The galls develop on the roots. After 14 days, the nematicidal efficacy in % is determined by the formation of galls. 100% means that no galls were found; 0% means that the number of galls on the treated plants corresponds to the untreated control.

Boophilus microplus = Boophilus microplus - injection test; assay type: in vivo; conditions: 20 μg/animal, injection into engorged adult female cattle ticks, assessed after 7 days
Protocol: 1. Boophilus microplus—Injection Test
Solvent: dimethyl sulphoxide
To produce a suitable preparation of active compound, 10 mg of active compound are mixed with 0.5 ml of solvent and the concentrate is diluted with solvent to the desired concentration.
1 μl of the active compound solution is injected into the abdomen of 5 engorged adult female cattle ticks (Boophilus microplus). The animals are transferred into dishes and kept in a climate-controlled room.
Efficacy is assessed after 7 days by laying of fertile eggs. Eggs which are not visibly fertile are stored in a climate-controlled cabinet until the larvae hatch after about 42 days. An efficacy of 100% means that none of the ticks has laid any fertile eggs; 0% means that all the eggs are fertile.

Tetranychus urticae = Tetranychus urticae - spray test, OP-resistant (bean leaf discs, 6 days); assay type: in vivo; conditions: 500 g/ha, after 6 days; for pest or weed control at 500 g/ha: Tetranychus urticae, foliar, 144 h, read-out: efficacy (spider mites killed)
Method in brief: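 Bean leaf discs carrying all stages of OP-resistant Tetranychus urticae were sprayed with compound formulated in acetone/DMF and diluted in water with 1000 ppm emulsifier. Mortality was scored after 6 days as % efficacy, where 100% means all mites were killed.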

[2] = pH 2.7, HPLC, acidic range, pH 2.7, 0.1% aqueous formic acid and acetonitrile, read-out: log P(HCOOH)
[3] = pH 2.7, method [a], read-out: logP[a]
[4] = pH 7.8, HPLC, neutral range, pH 7.8, 0.001 molar aqueous ammonium hydrogencarbonate and acetonitrile, read-out: log P(neutral)
[5] = pH 7.8, method [b], read-out: logP[b]

Row | logP[a] [1] | logP[b] [1] | chromatographic logP [1, 2] | chromatographic logP [1, 3] | chromatographic logP [1, 4] | chromatographic logP [1, 5] | Structure (SMILES) | efficacy (beetle larvae killed) (Phaedon cochleariae) | nematicidal efficacy (formation of galls) (Meloidogyne incognita) | efficacy (laying of fertile eggs) (Boophilus microplus) | efficacy (spider mites killed) (Tetranychus urticae) | pest or weed control at 500 g/ha (Tetranychus urticae)
1 | 2.46 | 2.50 |  |  |  |  | Cc1cc(C)c([S+]([O-])CC(F)(F)F)cc1N1C(=O)CN(C(=O)Nc2ccccn2)C1=O (racemic) [compound 118] | 100% |  |  |  | 
2 | 3.34 | 3.29 |  |  |  |  | Cc1cc(F)c(N2C(=O)CN(C(=O)NC(C)C)C2=O)cc1SCC(F)(F)F [Ex. No. 7] |  | 90% | 100% | 100% | 
3 |  |  | 3.28 | 3.28 | 3.21 | 3.21 | Cc1cc(F)c(N2C(=O)CN(C(=O)NCC(F)(F)F)C2=O)cc1SCC(F)(F)F [Ex. No. 30, 3-[2-Fluoro-4-methyl-5-(2,2,2-trifluoroethylsulphanyl)phenyl]-2,4-dioxo-N-(2,2,2-trifluoroethyl)imidazolidine-1-carboxamide] | 83% |  |  |  | 90%
4 |  |  | 2.46 | 2.46 | 2.42 | 2.41 | Cc1cc(F)c(N2C(=O)CN(C(=O)NCC(F)(F)F)C2=O)cc1[S+]([O-])CC(F)(F)F (stereo not drawn) [Ex. No. 36, 3-[2-Fluoro-4-methyl-5-(2,2,2-trifluoroethylsulphinyl)phenyl]-2,4-dioxo-N-(2,2,2-trifluoroethyl)imidazolidine-1-carboxamide] |  | 90% | 100% |  | 100%
5 | 2.98 | 2.93 |  |  |  |  | CCNC(=O)N1CC(=O)N(c2cc(SCC(F)(F)F)c(C)cc2F)C1=O [compound 6] |  | 90% | 100% | 100% | 
6 | 2.05 | 2.05 |  |  |  |  | CCNC(=O)N1CC(=O)N(c2cc([S+]([O-])CC(F)(F)F)c(C)cc2F)C1=O (stereo not drawn) [compound 9] |  | 100% | 100% | 100% | 
7 | 2.40 | 2.38 |  |  |  |  | Cc1cc(F)c(N2C(=O)CN(C(=O)NC(C)C)C2=O)cc1[S+]([O-])CC(F)(F)F (stereo not drawn) [compound 10] |  | 100% | 100% | 100% | 
8 | 2.77 | 2.71 |  |  |  |  | Cc1cc(F)c(N2C(=O)CN(C(=O)NCc3ccccc3)C2=O)cc1[S+]([O-])CC(F)(F)F (stereo not drawn) [compound 21] |  | 90% | 100% | 100% | 
9 | 4.32 | 4.24 |  |  |  |  | Cc1cc(F)c(N2C(=O)CN(C(=O)Nc3cccc(CC(F)(F)F)c3)C2=O)cc1SCC(F)(F)F [compound 37] | 83% |  |  | 100% | 
10 | 3.46 | 3.33 |  |  |  |  | Cc1cc(C)c(N2C(=O)CN(C(=O)NCC(F)(F)F)C2=O)cc1SCC(F)(F)F [compound 38] | 100% |  |  | 100% | 
11 | 3.85 | 3.75 |  |  |  |  | Cc1cc(F)c(N2C(=O)CN(C(=O)Nc3ccc(F)cc3)C2=O)cc1SCC(F)(F)F [compound 39] | 100% |  |  | 100% | 
12 | 3.90 | 3.94 |  |  |  |  | Cc1cc(F)c(N2C(=O)CN(C(=O)Nc3cccc(F)c3)C2=O)cc1SCC(F)(F)F [compound 42] |  | 90% | 100% | 100% | 
13 | 2.70 | 2.65 |  |  |  |  | CCC(C)NC(=O)N1CC(=O)N(c2cc([S+]([O-])CC(F)(F)F)c(C)cc2F)C1=O (stereo not drawn) [compound 47] |  | 100% | 100% | 100% | 
